Measured values taken from patent publication US20250161338A1, “Compounds for Anti-aging Intervention” (AGENCY FOR SCIENCE, TECHNOLOGY AND RESEARCH, priority 2022, published 2025).
Where a name gives a salt, the structure may show the parent alone.

How the values were obtained:
[1] = system: prototrophic yeast strain (CEN.PK113-7D); experiment: Propidium iodide fluorescence-based CLS method in yeast (incl. high-throughput screening); format: cell-based, Saccharomyces cerevisiae; conditions: concentration tested 100 μM; for Yeast CLS increase: Yes/No call of the screen; for PI intensity: solvent DMSO or water, chronological age point Day 7 (72 h growth = Day 1), lower = more survival;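 for PI intensity: untreated reference is eight DMSO and water control wells per plate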
Experimental: Yeast strain was recovered from frozen glycerol stock at 30° C. on YPD agar medium. Yeast was left to propagate in SD medium overnight at 30° C. with shaking at 220 revolutions per minute (rpm). Cells propagated overnight were diluted to a starting optical density at 600 nm (OD600) of approximately 0.2 in fresh SD medium to begin the chronological lifespan (CLS) experiments.
(§1) CLS experiments were performed in 96-well plates with 200 μL yeast culture. Cellular inoculums were transferred into 96-well plates containing serially double-diluted concentrations (0 to 10 nM) of rapamycin. Cellular inoculum was transferred into 96-well plates containing serially double-diluted concentrations (0 to 8 mM) of 2,5-anhydro-D-mannitol, D-fructose, D-mannitol, D-maltose, and D-sorbitol in SD medium. Cells were incubated at 30° C., and the growth was measured at different time points. […] Cell survival was quantified at various age time points by three different approaches: (i) PI fluorescence-based method, (ii) outgrowth in YPD liquid medium, and (iii) spotting assay (FIG. 1).
Yeast cells (40 μL) from different age time points were transferred into a second 96-well plate (different to the 96-well plate in which the CLS analysis as outlined above was performed). Cells were washed and incubated in 100 μL 1×phosphate buffered saline (PBS) with propidium iodide (PI) (5 μg/mL) for 15 minutes in the dark. Positive and negative control samples were included for quantitative analysis. Positive control (cells boiled at 100° C. for 15 minutes) was PI-stained and processed in the same 96-well plate. Samples without PI-stained cells served as the negative control. After incubation, cells were washed and resuspended in 100 μL PBS. The fluorescence reading of the samples (excitation and emission wavelengths at 535 nm and 617 nm, respectively) and OD600 were measured with a microplate reader (BioTek, Winooski, Vermont, United States). The fluorescence intensity of each sample was normalized with OD600. The background fluorescence signal of the unstained negative sample was subtracted from the normalized fluorescence intensity of each sample. The obtained fluorescence intensity of the positive control (boiled dead cells) was considered 0% cell survival. Cell death was validated by allowing the boiled dead cells to grow in medium. Cell survival at different age time points of samples were calculated by normalizing the fluorescence intensity with positive control sample (boiled cells).
High-throughput screening of various chemicals was tested using the same protocol for the propidium iodide fluorescence-based method as described above. The prototrophic yeast strain (CEN.PK113-7D) was grown in the synthetic defined medium with different chemical reagents at their respective single testing concentration (Table 1) in addition to eight replicates of DMSO and water controls in 96-well plates at 30° C.

[2] = system: prototrophic yeast strain (CEN.PK113-7D); experiment: Yeast outgrowth in YPD liquid medium (CLS of aged cells); format: cell-based, Saccharomyces cerevisiae; conditions: for Outgrowth: concentration tested 100 μM, OD600 nm after 24 h in YPD at 30° C., age point day 14; for aged cell survival in yeast: various concentrations, outgrowth relative to Day 2 (FIGS. 22A to D)
Experimental: as §1
Outgrowth (OD600) of aged cells was measured by the microplate reader. Quantification of cell survival for each age point was determined as relative to Day 1 (considered 100% cell survival). This quantification was performed by using the formula,
[formula] • where OutgrowthDay n refers to the OD600 nm absorbance reading recorded on a specific day, OutgrowthDay 1 refers to the OD600 nm absorbance reading recorded on the first day where 100% cell survival is assumed.
The CLS of the aged cells was further determined by the yeast outgrowth in YPD liquid medium method as described above. […] At chronological age point day 14, 3-μL of culture were transferred to a second 96-well plate containing 200 μL YPD medium.

Compound | Yeast CLS increase [1] | PI intensity [1] | Outgrowth [2] | aged cell survival in yeast [2]
C#CC1(O)CC[C@H]2[C@@H]3CCC4=CC(=O)CC[C@@H]4[C@H]3CC[C@@]21CC (mixture of isomers) [Norgestrel, reference compound] | No | 75,338.8 | 0.1 | 
O=C(O)C(O)Cc1ccccc1 (racemic) [DL-3-Phenyllactic acid] | No | 65,266.9 | 0.1 | 
C[S+](C)CCC(N)C(=O)O.[Cl-] (racemic) [DL-Methionine methylsulfonium (chloride)] | No | 66,281.7 | 0.1 | 
CC(C)(CO)C(O)C(=O)NCCCO (racemic) [DL-Panthenol] | No | 71,468.6 | 0.1 | 
NC(CO)C(=O)O (racemic) [DL-Serine] | Yes | 33,155.7 | 1.1 | 
O=C[C@H](O)[C@H](O)[C@H](O)CO (single isomer, unassigned) [D-Ribose(mixture of isomers)] | No | 60,023.1 | 0.1 | 
O=C(O)c1ccc(O)cc1O [2,4-Dihydroxybenzoic acid] | No | 76,326.3 | 0.1 | 
O=C(O)c1ccco1 [2-Furoic acid] | No | 72,748.2 | 0.1 | 
Oc1ccc2ccccc2c1 [2-Naphthol] | No | 72,298.9 | 0.1 | 
CCCC(=O)C(=O)O [2-Oxovaleric acid] | No | 61,246.4 | 0.1 | 
CC(C(=O)O)c1ccccc1 (stereo not shown) [2-Phenylpropionic acid] | No | 66,998.4 | 0.1 | 
Nc1ncnc2c1ncn2[C@H]1C[C@H](O)[C@@H](CO)O1 [2′-Deoxyadenosine] | No | 70,796.4 | 0.1 | 
COc1ccc(C=CC(=O)O)cc1OC [3,4-Dimethoxycinnamic acid] | No | 70,914.2 | 0.1 | 
COc1ccc(CC(=O)O)cc1OC [3,4-Dimethoxyphenylacetic acid] | No | 70,394.7 | 0.1 | 
O=C(O)c1cc(O)cc(O)c1 [3,5-Dihydroxybenzoic acid] | No | 59,369.7 | 0.1 | 
N[C@@H](Cc1ccc(O)c(Cl)c1)C(=O)O [3-Chloro-L-tyrosine] | No | 67,122.0 | 0.1 | 
CCc1ccc(O)cc1 [4-Ethylphenol] | No | 58,041.7 | 0.1 | 
COc1ccc(C=CC(=O)O)cc1 [4-Methoxycinnamic acid] | No | 89,890.5 | 0.1 | 
Cc1cc(=O)oc2cc(O)ccc12 [4-Methylumbelliferone] | No | 90,234.6 | 0.1 | 
CC(=O)c1ccc(O)c(C(=O)O)c1 [5-Acetylsalicylic acid] | No | 63,538.6 | 0.1 | 
O=c1[nH]cc(F)c(=O)[nH]1 [5-fluorouracil, reference compound] |  |  |  | survived longer as compared to those without treatment

Compound | Yeast CLS increase [1] | PI intensity [1] | Outgrowth [2] | aged cell survival in yeast [2]
CC(C)CCC[C@@H](C)[C@H]1CC[C@H]2[C@@H]3CC[C@H]4CC(=O)CC[C@]4(C)[C@H]3CC[C@]12C [5α-Cholestan-3-one] | No | 62,022.6 | 0.1 | 
C[C@H](O)[C@H](O)c1cnc2nc(N)[nH]c(=O)c2n1 [6-Biopterin] | No | 75,974.5 | 0.1 | 
CC(C)CCC[C@](C)(O)[C@H]1CC[C@H]2[C@@H]3CC=C4C[C@@H](O)CC[C@]4(C)[C@H]3CC[C@@]21C [20(S)-Hydroxycholesterol] | No | 75,450.9 | 0.1 | 
NC[C@H](CC(=O)O)c1ccc(Cl)cc1 [(R)-Baclofen, reference compound] | No | 61,049.3 | 0.1 | 
CC(C)=CCC[C@@H](C)CCO [(R)-Citronellol] | No | 75,290.6 | 0.1 | 
O=C(O)[C@H]1CCCN1 [(R)-pyrrolidine-2-carboxylic acid] | No | 80,551.7 | 0.1 | 
O=C(O)[C@@H](O)Cc1ccccc1 [(S)-2-Hydroxy-3-phenylpropanoic acid] | No | 72,969.5 | 0.1 | 
Cn1cc(C[C@H](N)C(=O)O)c2ccccc21 [(S)-Indoximod] | No | 78,648.2 | 0.1 | 
Oc1cc(O)c2c(c1)O[C@H](c1cc(O)c(O)c(O)c1)[C@H](O)C2 [(−)-Epigallocatechin] | No | 62,025.6 | 0.1 | 
N[C@H](C(=O)O)[C@@H]1CC(Cl)=NO1 [Acivicin] | Yes | 41,066.2 | 1.0 | 
CCCCC[C@H](CC(=O)NO)C(=O)N[C@H](C(=O)N1CCC[C@H]1CO)C(C)C [Actinonin] | No | 75,254.2 | 0.1 | 
COCCCOc1cc(C[C@@H](C[C@H](N)[C@@H](O)C[C@H](C(=O)NCC(C)(C)C(N)=O)C(C)C)C(C)C)ccc1OC.COCCCOc1cc(C[C@@H](C[C@H](N)[C@@H](O)C[C@H](C(=O)NCC(C)(C)C(N)=O)C(C)C)C(C)C)ccc1OC.O=C(O)/C=C/C(=O)O [Aliskiren (hemiumarate), reference compound] | No | 73,607.3 | 0.1 | 
O=C1c2c(O)cccc2[C@@H]([C@@H]2O[C@H](CO)[C@@H](O)[C@H](O)[C@H]2O)c2cc(CO)cc(O)c21 [Aloin B] | No | 89,712.0 | 0.1 | 
Nc1c(Br)cc(Br)cc1CN[C@H]1CC[C@H](O)CC1 [Ambroxol (hydrochloride), reference compound] | No | 63,509.0 | 0.1 | 
NCCCNCCSP(=O)(O)O [Amifostine, reference compound] | No | 69,013.2 | 0.2 | 
CC(CCC(=O)NCC(=O)O)C1CCC2C3CCC4CC(O)CCC4(C)C3CC(O)C12C (stereo not shown) [Glycodeoxycholic Acid] |  | 68,981.6 |  | 
COc1c(O)cc(O)c2c(=O)cc(-c3ccccc3)oc12 [Wogonin] | No | 76,348.2 |  | 
CC(C)c1c(C(=O)Nc2ccccc2)c(-c2ccccc2)c(-c2ccc(F)cc2)n1CC[C@@H](O)C[C@@H](O)CC(=O)O [atorvastatin, reference compound] |  |  |  | survived longer as compared to those without treatment
CN(Cc1cnc2nc(N)nc(N)c2n1)c1ccc(C(=O)N[C@@H](CCC(=O)O)C(=O)O)cc1 [methotrexate, reference compound] |  |  |  | survived longer as compared to those without treatment
hemin [reference compound] |  |  |  | survived longer as compared to those without treatment
